US9962369B2, “Methods and compositions for transdermal delivery” (SPRAYABLE HOLDINGS, INC., priority 2014, dated 2018)

Experiment: Transdermal delivery of melatonin: plasma level of melatonin after applying composition to skin of a subject
Conditions: for concentration at 0 h / concentration at 1 h / concentration at 2 h / concentration at 0 hr / concentration at 1 hr / concentration at 2 hr / concentration at 4 hr / concentration at 8 hr / concentration at 4 h / concentration at 8 h: human, plasma, topical, 3 mg

For `COc1ccc2[nH]cc(CCNC(C)=O)c2c1` [Melatonin], the “Plasma level of melatonin” value (2-(Dimethylamino)ethyl 2-(4-isobutylphenyl)propionate hydrochloride 222.60 mM, 0.60 mL applied to skin, 1 hr after transdermal administration) was 1.5 ng/mL, the “Plasma level of melatonin” value (2-(Dimethylamino)ethyl 2-(4-isobutylphenyl)propionate hydrochloride 222.60 mM, 0.60 mL applied to skin, 2 hr after transdermal administration) was 1.7 ng/mL and the “Plasma level of melatonin” value (2-(Dimethylamino)ethyl 2-(4-isobutylphenyl)propionate hydrochloride 222.60 mM, 0.60 mL applied to skin, 4 hr after transdermal administration) was 1.6 ng/mL. The “Plasma level of melatonin” value (2-(Dimethylamino)ethyl 2-(4-isobutylphenyl)propionate hydrochloride 222.60 mM, 0.60 mL applied to skin, 8 hr after transdermal administration) was 1.5 ng/mL, the “Plasma level of melatonin” value (4-(Diethylamino)butyl 2-(4-isobutylphenyl)propionate hydrochloride 189.21 mM, 0.60 mL applied to skin, 0 hr after transdermal administration) was 0 ng/mL and the “Plasma level of melatonin” value (4-(Diethylamino)butyl 2-(4-isobutylphenyl)propionate hydrochloride 189.21 mM, 0.60 mL applied to skin, 1 hr after transdermal administration) was 1.4 ng/mL. The “Plasma level of melatonin” value (4-(Diethylamino)butyl 2-(4-isobutylphenyl)propionate hydrochloride 189.21 mM, 0.60 mL applied to skin, 2 hr after transdermal administration) was 1.5 ng/mL, the “Plasma level of melatonin” value (4-(Diethylamino)butyl 2-(4-isobutylphenyl)propionate hydrochloride 189.21 mM, 0.60 mL applied to skin, 4 hr after transdermal administration) was 1.5 ng/mL and the “Plasma level of melatonin” value (4-(Diethylamino)butyl 2-(4-isobutylphenyl)propionate hydrochloride 189.21 mM, 0.60 mL applied to skin, 8 hr after transdermal administration) was 1.3 ng/mL. The “Plasma level of melatonin” value (5-(Diethylamino)pentyl 2-(4-isobutylphenyl)propionate hydrochloride 182.28 mM, 0.60 mL applied to skin, 1 hr after transdermal administration) was 1.6 ng/mL, the “Plasma level of melatonin” value (5-(Diethylamino)pentyl 2-(4-isobutylphenyl)propionate hydrochloride 182.28 mM, 0.60 mL applied to skin, 2 hr after transdermal administration) was 1.9 ng/mL and the “Plasma level of melatonin” value (5-(Diethylamino)pentyl 2-(4-isobutylphenyl)propionate hydrochloride 182.28 mM, 0.60 mL applied to skin, 4 hr after transdermal administration) was 1.9 ng/mL. For the same compound, the “Plasma level of melatonin” value (5-(Diethylamino)pentyl 2-(4-isobutylphenyl)propionate hydrochloride 182.28 mM, 0.60 mL applied to skin, 8 hr after transdermal administration) was 1.7 ng/mL, the “Plasma level of melatonin” value (Helper esters: None (0 mM), 2.0 mL applied to skin, 0 hr after transdermal administration) was 0.0 ng/mL and the concentration at 0 h was 0 ng/mL. For the same compound, the concentration at 0 h (Plasma level of melatonin, Helper esters: None (0 mM), 2.0 mL applied to skin, 0 hr after transdermal administration) was 0 ng/mL, the concentration at 1 h (Plasma level of melatonin, Helper esters: None (0 mM), 2.0 mL applied to skin, 1 hr after transdermal administration) was 0.1 ng/mL and the concentration at 2 h (Plasma level of melatonin, Helper esters: None (0 mM), 2.0 mL applied to skin, 2 hr after transdermal administration) was 0.1 ng/mL. For the same compound, the concentration at 0 hr (Plasma level of melatonin, Isoleucine hexyl ester 278.04 mM, 0.60 mL applied to skin, 0 hr after transdermal administration) was 0 ng/mL, the concentration at 1 hr (Plasma level of melatonin, Isoleucine hexyl ester 278.04 mM, 0.60 mL applied to skin, 1 hr after transdermal administration) was 1.2 ng/mL and the concentration at 2 hr (Plasma level of melatonin, Isoleucine hexyl ester 278.04 mM, 0.60 mL applied to skin, 2 hr after transdermal administration) was 1.3 ng/mL. The concentration at 4 hr (Plasma level of melatonin, Isoleucine hexyl ester 278.04 mM, 0.60 mL applied to skin, 4 hr after transdermal administration) was 1.4 ng/mL, the concentration at 8 hr (Plasma level of melatonin, Isoleucine hexyl ester 278.04 mM, 0.60 mL applied to skin, 8 hr after transdermal administration) was 1.3 ng/mL and the concentration at 0 hr (Plasma level of melatonin, Isoleucine isopropyl ester 333.76 mM, 0.60 mL applied to skin, 0 hr after transdermal administration) was 0 ng/mL. It also gave a concentration at 1 hr (Plasma level of melatonin, Isoleucine isopropyl ester 333.76 mM, 0.60 mL applied to skin, 1 hr after transdermal administration) of 1.7 ng/mL, a concentration at 2 hr (Plasma level of melatonin, Isoleucine isopropyl ester 333.76 mM, 0.60 mL applied to skin, 2 hr after transdermal administration) of 1.8 ng/mL and a concentration at 4 hr (Plasma level of melatonin, Isoleucine isopropyl ester 333.76 mM, 0.60 mL applied to skin, 4 hr after transdermal administration) of 1.9 ng/mL. It also gave a concentration at 8 hr (Plasma level of melatonin, Isoleucine isopropyl ester 333.76 mM, 0.60 mL applied to skin, 8 hr after transdermal administration) of 1.8 ng/mL, a concentration at 0 h (Plasma level of melatonin, Leucine hexyl ester hydrochloride 278.04 mM, 0.60 mL applied to skin, 0 hr after transdermal administration) of 0 ng/mL and a concentration at 1 h (Plasma level of melatonin, Leucine hexyl ester hydrochloride 278.04 mM, 0.60 mL applied to skin, 1 hr after transdermal administration) of 1.4 ng/mL. The concentration at 2 h (Plasma level of melatonin, Leucine hexyl ester hydrochloride 278.04 mM, 0.60 mL applied to skin, 2 hr after transdermal administration) was 1.5 ng/mL, the concentration at 4 hr (Plasma level of melatonin, Leucine hexyl ester hydrochloride 278.04 mM, 0.60 mL applied to skin, 4 hr after transdermal administration) was 1.5 ng/mL and the concentration at 8 hr (Plasma level of melatonin, Leucine hexyl ester hydrochloride 278.04 mM, 0.60 mL applied to skin, 8 hr after transdermal administration) was 1.3 ng/mL. The concentration at 0 h (Plasma level of melatonin, Leucine isopropyl ester hydrochloride 333.76 mM, 0.60 mL applied to skin, 0 hr after transdermal administration) was 0 ng/mL, the concentration at 1 h (Plasma level of melatonin, Leucine isopropyl ester hydrochloride 333.76 mM, 0.60 mL applied to skin, 1 hr after transdermal administration) was 1.7 ng/mL and the concentration at 2 h (Plasma level of melatonin, Leucine isopropyl ester hydrochloride 333.76 mM, 0.60 mL applied to skin, 2 hr after transdermal administration) was 1.8 ng/mL. For the same compound, the concentration at 4 h (Plasma level of melatonin, Leucine isopropyl ester hydrochloride 333.76 mM, 0.60 mL applied to skin, 4 hr after transdermal administration) was 1.9 ng/mL, the concentration at 8 h (Plasma level of melatonin, Leucine isopropyl ester hydrochloride 333.76 mM, 0.60 mL applied to skin, 8 hr after transdermal administration) was 1.8 ng/mL and the concentration at 0 hr (Plasma level of melatonin, Phenylalanine isopropyl ester hydrochloride 287.21 mM, 0.60 mL applied to skin, 0 hr after transdermal administration) was 0 ng/mL. For the same compound, the concentration at 1 hr (Plasma level of melatonin, Phenylalanine isopropyl ester hydrochloride 287.21 mM, 0.60 mL applied to skin, 1 hr after transdermal administration) was 1.6 ng/mL, the concentration at 2 hr (Plasma level of melatonin, Phenylalanine isopropyl ester hydrochloride 287.21 mM, 0.60 mL applied to skin, 2 hr after transdermal administration) was 1.7 ng/mL and the concentration at 4 hr (Plasma level of melatonin, Phenylalanine isopropyl ester hydrochloride 287.21 mM, 0.60 mL applied to skin, 4 hr after transdermal administration) was 1.6 ng/mL. It also gave a concentration at 8 hr (Plasma level of melatonin, Phenylalanine isopropyl ester hydrochloride 287.21 mM, 0.60 mL applied to skin, 8 hr after transdermal administration) of 1.7 ng/mL, a concentration at 0 h (Plasma level of melatonin, Phenylalanine octyl ester hydrochloride 223.02 mM, 0.60 mL applied to skin, 0 hr after transdermal administration) of 0 ng/mL and a concentration at 1 h (Plasma level of melatonin, Phenylalanine octyl ester hydrochloride 223.02 mM, 0.60 mL applied to skin, 1 hr after transdermal administration) of 1.3 ng/mL. For the same compound, the concentration at 2 h (Plasma level of melatonin, Phenylalanine octyl ester hydrochloride 223.02 mM, 0.60 mL applied to skin, 2 hr after transdermal administration) was 1.4 ng/mL, the concentration at 4 h (Plasma level of melatonin, Phenylalanine octyl ester hydrochloride 223.02 mM, 0.60 mL applied to skin, 4 hr after transdermal administration) was 1.3 ng/mL and the concentration at 8 h (Plasma level of melatonin, Phenylalanine octyl ester hydrochloride 223.02 mM, 0.60 mL applied to skin, 8 hr after transdermal administration) was 1.2 ng/mL. For the same compound, the concentration at 0 hr (Plasma level of melatonin, Table 20 control, A− N/A, helper esters 0 mM, 2.0 mL applied, 0 hr after transdermal administration) was 0 ng/mL, the concentration at 1 hr (Plasma level of melatonin, Table 20 control, A− N/A, helper esters 0 mM, 2.0 mL applied, 1 hr after transdermal administration) was 0.1 ng/mL and the concentration at 2 h (Plasma level of melatonin, Table 20 control, A− N/A, helper esters 0 mM, 2.0 mL applied, 2 hr after transdermal administration) was 0.1 ng/mL.
